These are literature values, as cited in US11717549B2, “Steviol glycoside solubility enhancers” (CARGILL, INCORPORATED, priority 2017, dated 2023).

The conditions of one data set: temperature 14 ° C.; cited from earlier work.
As for `O=C(O)c1ccc(O)c(O)c1` [3,4-dihydroxybenzoic acid], the “solubility (ppm)” value was 1.79E+04 ppm. On to `O=C(O)c1cccc(Cl)c1C(=O)O` [3-chlorophthalic acid], for which the “solubility (ppm)” value is 2.08E+04 ppm.

Staying with this data set, now noted: temperature 20 ° C.; cited from earlier work.
With `Cc1cc(S(=O)(=O)O)ccc1N` [4-amino-3-methylbenzene sulfonic acid], the “solubility (ppm)” value is 4.98E+03 ppm.

As to `Cc1ccc(N)cc1S(=O)(=O)O` [4-amino-o-toluenesulfonic acid], the “solubility (ppm)” value was 4.48E+03 ppm.

The data set is the same for the next values; noted with them: temperature 25 ° C.; cited from earlier work.
With `COc1ccccc1C(=O)O` [2-methoxybenzoic acid], the “solubility (ppm)” value was 4.18E+03 ppm. Consider `CCCCC=C(C)C(=O)O` [2-methyl-2-heptenoic acid], for which the “solubility (ppm)” value is recorded as 4.64E+03 ppm. Turning to `CCCC=CC(C)C(=O)O` (centres unmarked) [2-methyl-3-heptenoic acid], the “solubility (ppm)” value is on record as 4.64E+03 ppm. As for `CCC=CCC(C)C(=O)O` (centres unmarked) [2-methyl-4-heptenoic acid], the “solubility (ppm)” value was 4.64E+03 ppm. With `O=C(O)c1ccc([N+](=O)[O-])c([N+](=O)[O-])c1` [3,4-dinitrobenzoic acid], the “solubility (ppm)” value is recorded as 6.66E+03 ppm. Regarding `COc1c(Cl)ccc(Cl)c1C(=O)O` [3,6-dichloro-2-methoxybenzoic acid], the “solubility (ppm)” value is listed as 4.48E+03 ppm. Take `O=C(O)c1cccc(Br)c1[N+](=O)[O-]` [3-bromo-2-nitrobenzoic acid]: the “solubility (ppm)” value was 7.36E+03 ppm.

`CCCC(=CC(=O)O)CC` [3-ethyl-2-hexenoic acid]: the “solubility (ppm)” value is listed as 6.06E+03 ppm. Take `CCCC=CCC(=O)O` [3-heptenoic acid]: the “solubility (ppm)” value is on record as 5.37E+03 ppm.

On to `O=C(O)c1cc(=O)c(O)c(C(=O)O)o1` [3-hydroxy-4-oxo-4H-pyran-2,6-dicarboxylic acid], for which the “solubility (ppm)” value is 8.33E+03 ppm.

As for `CCCCC(C)=CC(=O)O` [3-methyl-2-heptenoic acid], the “solubility (ppm)” value is on record as 4.64E+03 ppm.

Take `CCCC=C(C)CC(=O)O` [3-methyl-3-heptenoic acid]: the “solubility (ppm)” value was 4.64E+03 ppm. As for `CCC=CC(C)CC(=O)O` (centres unmarked) [3-methyl-4-heptenoic acid], the “solubility (ppm)” value is recorded as 4.64E+03 ppm. Consider `CCCC(C)CC(=O)O` (centres unmarked) [3-methylhexanoic acid], for which the “solubility (ppm)” value is 4.80E+03 ppm. Consider `CC(CCCCCC(=O)O)CC(=O)O` (centres unmarked) [3-methylnonanedioic acid], for which the “solubility (ppm)” value was 5.53E+03 ppm. Consider `O=C(O)c1cccc([N+](=O)[O-])c1C(=O)O` [3-nitrophthalic acid], for which the “solubility (ppm)” value was 1.97E+04 ppm. Consider `CC(C)(C)C(CCC(=O)O)CC(=O)O` (centres unmarked) [3-tert-butyl adipic acid], for which the “solubility (ppm)” value is listed as 6.14E+03 ppm. Turning to `CCC(C=CC(=O)O)CC` [4-ethyl-2-hexenoic acid], the “solubility (ppm)” value is 6.06E+03 ppm.

Take `CCC=CCCC(=O)O` [4-heptenoic acid]: the “solubility (ppm)” value is listed as 5.37E+03 ppm. In the case of `CCCC(C)C=CC(=O)O` (centres unmarked) [4-methyl-2-heptenoic acid], the “solubility (ppm)” value is reported as 4.64E+03 ppm.

Turning to `CCCC(C)=CCC(=O)O` [4-methyl-3-heptenoic acid], the “solubility (ppm)” value is reported as 4.64E+03 ppm.

The data set is the same for the next values; noted with them: temperature 100 ° C.; cited from earlier work.
In the case of `Cc1cccc(C(=O)O)c1O` [2-hydroxy-3-methylbenzoic acid], the “solubility (ppm)” value was 1.15E+04 ppm.

Take `Cc1ccc(C(=O)O)c(O)c1` [2-hydroxy-4-methylbenzoic acid]: the “solubility (ppm)” value is given as 1.00E+04 ppm. As to `Cc1ccc(O)c(C(=O)O)c1` [2-hydroxy-5-methylbenzoic acid], the “solubility (ppm)” value is recorded as 2.14E+04 ppm.

`O=C(O)c1cccc(C(=O)O)c1O` [2-hydroxyisophthalic acid]: the “solubility (ppm)” value is 2.57E+04 ppm. On to `Cc1ccc(C(=O)O)cc1O` [3-hydroxy-4-methylbenzoic acid], for which the “solubility (ppm)” value was 4.17E+04 ppm. As to `O=C(O)c1cc(=O)c2ccccc2[nH]1` [4-hydroxy-2-quinolinecarboxylic acid], the “solubility (ppm)” value is recorded as 8.84E+03 ppm.

Staying with this data set, now noted: temperature not given; cited from earlier work.
As to `CCNCCOC(=O)c1ccc(N)cc1` [4-aminobenzoic aciD-2-(ethyl-amino)ethyl ester], the “solubility (ppm)” value is 5.59E+03 ppm.
